The numbers were not newly measured in US20180051316A1, “DETECTION OF NUCLEIC ACID POLYMERASE CONFORMATIONAL CHANGES USING A NANOTUBE” (priority 2014, published 2018), which cites them from elsewhere.

In this data set the target is KF active site (Escherichia coli, UniProt P00582). As to conditions: inhibition of KF catalysis; cited from earlier work.
Chain of KF active site (P00582 324-928): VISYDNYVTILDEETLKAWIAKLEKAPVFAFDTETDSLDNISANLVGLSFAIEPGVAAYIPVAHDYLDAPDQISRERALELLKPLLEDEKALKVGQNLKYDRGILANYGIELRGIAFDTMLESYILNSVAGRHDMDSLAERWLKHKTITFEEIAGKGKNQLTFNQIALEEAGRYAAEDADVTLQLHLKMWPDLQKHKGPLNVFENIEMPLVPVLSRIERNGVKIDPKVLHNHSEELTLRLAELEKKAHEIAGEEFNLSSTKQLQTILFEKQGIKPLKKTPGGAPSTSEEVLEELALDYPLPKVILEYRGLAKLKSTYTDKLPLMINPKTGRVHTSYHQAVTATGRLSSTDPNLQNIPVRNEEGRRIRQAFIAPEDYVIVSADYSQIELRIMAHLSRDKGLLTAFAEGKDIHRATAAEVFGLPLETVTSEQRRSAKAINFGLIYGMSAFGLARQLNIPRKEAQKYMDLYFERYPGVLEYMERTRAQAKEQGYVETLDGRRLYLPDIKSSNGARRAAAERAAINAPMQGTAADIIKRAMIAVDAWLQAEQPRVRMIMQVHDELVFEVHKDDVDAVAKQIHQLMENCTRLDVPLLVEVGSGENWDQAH

Turning to `Cc1cn(C2CC(O)C(COP(O)(=S)OP(=O)(O)OP(=O)(O)O)O2)c(=O)[nH]c1=O` (single isomer, unassigned) [Rp diastereomer of α-thio-dTTP], the Ki (in general, a dissociation constant, usually derived from enzyme kinetics or from competition with a known ligand) is about 30 µM.
